Assay results reported in patent US20210315893A1 (Galapagos NV, priority 2017, published 2021).

Legend:
[1] = target: T1, human GPCR sphingosine 1-phosphate receptor 2 (Homo sapiens, UniProt O95136); test: S1PR2 antagonist Ca2+ flux assay; type: cell-based; conditions: antagonist mode, CHO-S1PR2 cells, S1P at EC80, Ca2+ fluorescence; read-out: S1P2 EC50 (nM), S1P2 antagonist EC50
T1 construct: host or cells: CHO
Method in brief: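 CHO cells stably expressing human S1PR2, serum-starved 1 h, Fluo8-loaded; compound-evoked Ca2+ fluorescence read 3 min (agonist mode), then after 15 min S1P at EC80 added and read 3 min (antagonist mode). Max/baseline fluorescence ratios normalised to vehicle and S1P EC100 or EC50 controls; EC50 derived.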

[2] = target: T2, S1PR2 (Homo sapiens, UniProt O95136); test: S1PR2 binding assay (competition with radioactively labeled S1P, SpA); conditions: membranes from stable cell line over expressing S1PR2, SpA beads; read-out: S1P2 EC50 (nM), S1PR2 binding EC50
T2 construct: expressed in transfected cells
T2 sequence (O95136 whole entry): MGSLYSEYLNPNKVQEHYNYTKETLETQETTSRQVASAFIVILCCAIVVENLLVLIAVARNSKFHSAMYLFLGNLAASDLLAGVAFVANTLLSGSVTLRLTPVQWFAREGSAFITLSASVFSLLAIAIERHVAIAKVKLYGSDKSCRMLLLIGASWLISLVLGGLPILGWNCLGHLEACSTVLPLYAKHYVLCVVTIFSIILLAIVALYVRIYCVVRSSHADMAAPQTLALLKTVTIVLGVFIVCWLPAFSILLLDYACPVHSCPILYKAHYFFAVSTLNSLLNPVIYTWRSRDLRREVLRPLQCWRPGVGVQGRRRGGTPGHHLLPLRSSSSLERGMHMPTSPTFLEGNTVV
Method in brief: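 Competition with [3H]S1P for membranes from a stable S1PR2-overexpressing cell line, 20 μg/well, captured on PVT-WGA SPA beads, in 20 mM Tris pH 7.5, 10 mM MgCl2, 100 mM NaCl, 0.4% fatty-acid-free BSA, 1 mM Na3VO4. 2 h at room temperature, then centrifugation and scintillation counting.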

[3] = system: HFL-1 cells; test: IL-8 production assay (S1P induced IL-8); type: cell-based; conditions: Homo sapiens, HFL1; S1P (1 μM) induced IL-8 in HFL-1 cells, starvation medium without HSA; read-out: IL8 EC50
Procedure: This assay is designed to test inhibitory activity of compounds on S1P induced IL-8 on HFL-1 cells, ahuman fetal lung fibroblast cell line.
Human Fetal Lung cells (HFL-1) are seeded in 96 well plates in growth medium (F12K+10% heat inactivated FBS+l1% Pen/strep). After overnight incubation at 37° C., […] cells are refreshed with starvation medium without HSA (F12K+1% FBS+1% Pen/strep). On day three, compounds are added (10 point serial dilution, 30 μM highest concentration, 1/3 dilution, 0.3% DMSO final) and plates are incubated for one h at 37° C., 5% CO2. Subsequently S1P at 1 μM final concentration is added and plates are incubated for 16 to24 h at 37° C., […] after which the supermatant was collected. IL-8 levels in the supernatant are determined with the IL-8 ELISA of R&D systems.

[4] = system: HFL-1 cells; test: IL8 assay in the presence of Human Serum Albumin; conditions: HFL1, read-out: HSA IL8 EC50

T1 sequence (O95136 whole entry): as above

| Compound | EC50 [1] [nM] | EC50 [2] [nM] | EC50 [3] [nM] | EC50 [4] [nM] |
| --- | --- | --- | --- | --- |
| COCCN(C)C(=O)Cn1nc(Cc2nc3cc(OCC(F)F)c(C#N)cc3[nH]2)c2ccccc2c1=O [Compound 183, 2-[4-[[6-cyano-5-(2,2-difluoroethoxy)-1H-benzimidazol-2-yl]methyl]-1-oxo-phthalazin-2-yl]-N-(2-methoxyethyl)-N-methyl-acetamide] | 76 | 307 | 196 | 430 |
| COCCNC(=O)Cn1nc(Cc2nc3cc(C#N)c(OCC(F)F)cc3[nH]2)c2ccccc2c1=O [Compound 187, 2-[4-[[5-cyano-6-(2,2-difluoroethoxy)-1H-benzimidazol-2-yl]methyl]-1-oxo-phthalazin-2-yl]-N-(2-methoxyethyl)acetamide] | 50.2 | 165 | 74.5 | 80.4 |
| N#Cc1cc2nc(Cc3nn(CC(=O)N4CCC(F)(F)CC4)c(=O)c4ccccc34)[nH]c2cc1OCC(F)F [Compound 188, 6-(2,2-difluoroethoxy)-2-[[3-[2-(4,4-difluoro-1-piperidyl)-2-oxo-ethyl]-4-oxo-phthalazin-1-yl]methyl]-1H-benzimidazole-5-carbonitrile] | 63.4 | 380 | 258 | 663 |
| COCC(O)CNC(=O)Cn1nc(Cc2nc3cc(C#N)c(OCC(F)F)cc3[nH]2)c2ccccc2c1=O (stereo not drawn) [Compound 192, 2-[4-[[5-cyano-6-(2,2-difluoroethoxy)-1H-benzimidazol-2-yl]methyl]-1-oxo-phthalazin-2-yl]-N-(2-hydroxy-3-methoxypropyl)acetamide] | 41 | 190 | 156 | 666 |
| N#Cc1cc2nc(Cc3nn(CC(=O)N4CCC(O)CC4)c(=O)c4ccccc34)[nH]c2cc1OCC(F)F [Compound 193, 6-(2,2-difluoroethoxy)-2-[[3-[2-(4-hydroxy-1-piperidyl)-2-oxo-ethyl]-4-oxo-phthalazin-1-yl]methyl]-1H-benzimidazole-5-carbonitrile] | 36.5 | 346 | 49.7 | 183 |
| N#Cc1cc2nc(Cc3nn(CC(=O)N(CCO)CC(F)F)c(=O)c4ccccc34)[nH]c2cc1OCC(F)F [Compound 194, 2-[4-[[5-cyano-6-(2,2-difluoroethoxy)-1H-benzimidazol-2-yl]methyl]-1-oxo-phthalazin-2-yl]-N-(2,2-difluoroethyl)-N-(2-hydroxyethyl)acetamide] | 41.9 | 268 | 186 | 453 |
| N#Cc1cc2nc(Cc3nn(CC(=O)NCC4(CO)COC4)c(=O)c4ccccc34)[nH]c2cc1OCC(F)F [Compound 199, 2-[4-[[5-cyano-6-(2,2-difluoroethoxy)-1H-benzimidazol-2-yl)methyl]-1-oxo-phthalazin-2-yl]-N-[[3-(hydroxymethyl)oxetan-3-yl]methyl]acetamide] | 54.6 | 173 | 80.3 | 276 |
| CC(C)(C)NC(=O)Cn1nc(Cc2nc3cc(OCC(F)F)c(C#N)cc3[nH]2)c2c(c1=O)CCCC2 [Compound 203, N-tert-butyl-2-[4-[[6-cyano-5-(2,2-difluoroethoxy)-1H-benzimidazol-2-yl]methyl]-1-oxo-5,6,7,8-tetrahydrophthalazin-2-yl]acetamide] | 148 | 343 | 1020 | 1940 |
| N#Cc1cc2nn(Cc3nn(CC(=O)N4CCOCC4)c(=O)c4ccccc34)cc2cc1OCC(F)F [Compound 205, 5-(2,2-difluoroethoxy)-2-[[3-(2-morpholino-2-oxo-ethyl)-4-oxo-phthalazin-1-yl]methyl]indazole-6-carbonitrile] | 13200 | 7680 | 2640 | 9070 |
| CN(C)[C@@H]1CCN(C(=O)Cn2nc(Cn3cc4cc(OCC(F)F)c(C#N)cc4n3)c3ccccc3c2=O)C1 [Compound 206] | ≥ 19800 | 3620 | 2990 | 2630 |
| CN(C)[C@H]1CCN(C(=O)Cn2nc(Cn3cc4cc(OCC(F)F)c(C#N)cc4n3)c3ccccc3c2=O)C1 [Compound 207, 5-(2,2-difluoroethoxy)-2-[[3-[2-[(3S)-3-(dimethylamino)pyrrolidin-1-yl]-2-oxo-ethyl]-4-oxo-phthalazin-1-yl]methyl]indazole-6-carbonitrile] | ≥ 19800 | 21900 | 29900 | 3030 |

Compounds with a lower EC50 [1], results first:

| EC50 [1] [nM] | EC50 [2] [nM] | EC50 [3] [nM] | EC50 [4] [nM] | Compound |
| --- | --- | --- | --- | --- |
| 32.5 | 80.3 | 139 | 634 | CN(CC(F)F)C(=O)Cn1nc(Cc2nc3cc(C#N)c(OCC(F)F)cc3[nH]2)c2ccccc2c1=O [Compound 197, 2-[4-[[5-cyano-6-(2,2-difluoroethoxy)-1H-benzimidazol-2-yl]methyl]-1-oxo-phthalazin-2-yl]-N-(2,2-difluoroethyl)-N-methyl-acetamide] |
| 31.9 | 197 | 27.8 | 171 | CC(C#N)CN(C)C(=O)Cn1nc(Cc2nc3cc(C#N)c(OCC(F)F)cc3[nH]2)c2ccccc2c1=O (stereo not drawn) [Compound 195, 2-[4-[[5-cyano-6-(2,2-difluoroethoxy)-1H-benzimidazol-2-yl]methyl]-1-oxo-phthalazin-2-yl]-N-(2-cyanopropyl)-N-methyl-acetamide] |
| 30.4 | 166 | 93.7 | 302 | N#Cc1cc2nc(Cc3nn(CC(=O)N4CCC(F)(F)CC4)c(=O)c4c3CCCC4)[nH]c2cc1OCC(F)F [Compound 185, 6-(2,2-difluoroethoxy)-2-[[3-[2-(4,4-difluoro-1-piperidyl)-2-oxo-ethyl]-4-oxo-5,6,7,8-tetrahydrophthalazin-1-yl]methyl]-1H-benzimidazole-5-carbonitrile] |
| 25.2 | 94.3 | 23.8 | 82.3 | N#Cc1cc2[nH]c(Cc3nn(CC(=O)NC4CCCOC4)c(=O)c4ccccc34)nc2cc1OCC(F)F (stereo not drawn) [Compound 184, 2-[4-[[6-cyano-5-(2,2-difluoroethoxy)-1H-benzimidazol-2-yl)methyl]-1-oxo-phthalazin-2-yl]-N-tetrahydropyran-3-yl-acetamide] |
| 25 | 141 | 34.8 | 80.9 | COC1CCN(C(=O)Cn2nc(Cc3nc4cc(C#N)c(OCC(F)F)cc4[nH]3)c3ccccc3c2=O)C1 (stereo not drawn) [Compound 186, 6-(2,2-difluoroethoxy)-2-[[3-[2-(3-methoxypyrrolidin-1-yl)-2-oxo-ethyl]-4-oxo-phthalazin-1-yl]methyl]-1H-benzimidazole-5-carbonitrile] |
| 15.7 | 83.1 | 27.2 | 445 | CN(CC1CC1)C(=O)Cn1nc(Cc2nc3cc(C#N)c(OCC(F)F)cc3[nH]2)c2ccccc2c1=O [Compound 196, 2-[4-[[5-cyano-6-(2,2-difluoroethoxy)-1H-benzimidazol-2-yl]methyl]-1-oxo-phthalazin-2-yl]-N-(cyclopropylmethyl)-N-methyl-acetamide] |
| 15 | 63.6 | 20.1 | 38 | CC(O)(CNC(=O)Cn1nc(Cc2nc3cc(C#N)c(OCC(F)F)cc3[nH]2)c2ccccc2c1=O)C(F)(F)F (stereo not drawn) [Compound 190, 2-[4-[[5-cyano-6-(2,2-difluoroethoxy)-1H-benzimidazol-2-yl]methyl]-1-oxo-phthalazin-2-yl]-N-(3,3,3-trifluoro-2-hydroxy-2-methylpropyl)acetamide] |
| 11.8 | 66.4 | 36.6 | 99.9 | N#Cc1cc2nc(Cc3nn(CC(=O)NC[C@H](O)C(F)(F)F)c(=O)c4ccccc34)[nH]c2cc1OCC(F)F [Compound 191, 2-[4-[[5-cyano-6-(2,2-difluoroethoxy)-1H-benzimidazol-2-yl]methyl]-1-oxo-phthalazin-2-yl]-N-[(2S)-3,3,3-trifluoro-2-hydroxypropyl]acetamide] |
| 8.77 | 93.7 | 10.6 | 103 | N#Cc1cc2nc(Cc3nn(CC(=O)N4CCOCC4)c(=O)c4c3CCCC4)[nH]c2cc1OCC(F)(F)F [Compound 200, 2-[[3-(2-morpholino-2-oxo-ethyl)-4-oxo-5,6,7,8-tetrahydrophthalazin-1-yl]methyl]-6-(2,2,2-trifluoroethoxy)-1H-benzimidazole-5-carbonitrile] |
| 6.86 | 48 | 13.4 | 479 | CC(C)(C)CNC(=O)Cn1nc(Cc2nc3cc(OCC(F)F)c(C#N)cc3[nH]2)c2ccccc2c1=O [Compound 202, 2-[4-[[6-cyano-5-(2,2-difluoroethoxy)-1H-benzimidazol-2-yl]methyl)-1-oxo-phthalazin-2-yl]-N-(2,2-dimethylpropyl)acetamide] |
